Patent publication US6362166B1, “Antipicornaviral compounds and methods for their use and preparation” (Agouron Pharmaceuticals, Inc., priority 1996, dated 2002)
Like-named read-outs stand apart in the source and are kept apart here.

Experiments:
[1] = molecular target: T1, Recombinant Rhinovirus 3C protease (RVP) serotype-14 (Human rhinovirus 14, UniProt P03303); assay: Inhibition of Rhinovirus Protease (fluorescence resonance energy transfer assay), serotype 14; format: biochemical, human rhinovirus (HRV); details: for kobs/I: progress curves in enzyme start experiments; for kinact/KI: pH 7.6, read-out: kobs/I
T1 construct: Recombinant Rhinovirus 3C proteases from serotypes 14, 16, 2 or 89; made in house
T1 sequence (P03303 1538-1719): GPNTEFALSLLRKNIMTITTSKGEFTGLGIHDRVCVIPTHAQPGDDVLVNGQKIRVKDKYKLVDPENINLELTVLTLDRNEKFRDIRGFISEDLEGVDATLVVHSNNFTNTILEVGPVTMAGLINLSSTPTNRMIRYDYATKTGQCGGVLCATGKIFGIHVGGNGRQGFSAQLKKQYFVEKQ

[2] = molecular target: T2, Recombinant Rhinovirus 3C protease (RVP) serotype 16 (Human rhinovirus 16, UniProt Q82122); assay: Inhibition of Rhinovirus Protease (fluorescence resonance energy transfer assay), serotype 16; format: biochemical, human rhinovirus (HRV); details: for kobs/I / kinact/KI: progress curves in enzyme start experiments; for kinact/KI: pH 7.6, read-out: kobs/I
T2 construct: Recombinant Rhinovirus 3C proteases from serotypes 14, 16, 2 or 89; made in house
T2 sequence (Q82122 1511-1693): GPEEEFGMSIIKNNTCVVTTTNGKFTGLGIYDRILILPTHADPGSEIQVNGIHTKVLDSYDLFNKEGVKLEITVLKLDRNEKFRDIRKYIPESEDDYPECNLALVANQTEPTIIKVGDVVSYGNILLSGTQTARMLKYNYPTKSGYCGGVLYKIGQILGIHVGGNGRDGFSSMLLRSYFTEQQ
Description: (§1) Stock solution (50 mM, in DMSO) of various compounds were prepared; dilutions were in the same solvent. Recombinant Rhinovirus 3C proteases from serotypes 14, 16, 2 or 89 were prepared by the following standard chromatographic procedures: (1) ion exchange using Q Sepharose Fast Flow from Pharmacia; (2) affinity chromatography using Affi-Gel Blue from Biorad; and (3) sizing using Sephadex G-100 from Pharmacia. Assays contained 2% DMSO, 50 mM tris pH 7.6, 1 mM EDTA, a compound at the indicated concentrations, approximately 1 μM substrate, and 50-100 nM protease. […] The kobs/I values were obtained from reactions initiated by addition of enzyme rather than substrate. RVP activity is measured in the fluorescence resonance energy transfer assay. The substrate was (N-terminal) DABCYL-([…]Gyl)-EDANS. In the uncleaved peptide, the EDANS fluorescence was quenched by the proximal DABCYL moeity. When the peptide was cleaved, the quenching was relieved, and activity was measured as an increase in fluorescence signal.
(§2) In the above table, all data is RVP serotype-14 unless otherwise noted in parentheses. All strains of human rhinovirus (HRV) were purchased from American Type Culture Collection (ATCC), except for serotype 14, which was produced from the infectious cDNA clone constructed and supplied to us by Dr. Roland Rueckert at the Institute for Molecular Virology, University of Wisconsin, Madison, Wisc. […] The data in the column designated kobs/I was measured from progress curves in enzyme start experiments.

[3] = molecular target: T3, Recombinant Rhinovirus 3C protease (RVP) serotype 2 (Human rhinovirus 2, UniProt P04936); assay: Inhibition of Rhinovirus Protease (fluorescence resonance energy transfer assay), serotype 2; format: biochemical, human rhinovirus (HRV); details: for kobs/I: progress curves in enzyme start experiments
T3 construct: Recombinant Rhinovirus 3C proteases from serotypes 14, 16, 2 or 89; made in house
T3 sequence (P04936 1508-1690): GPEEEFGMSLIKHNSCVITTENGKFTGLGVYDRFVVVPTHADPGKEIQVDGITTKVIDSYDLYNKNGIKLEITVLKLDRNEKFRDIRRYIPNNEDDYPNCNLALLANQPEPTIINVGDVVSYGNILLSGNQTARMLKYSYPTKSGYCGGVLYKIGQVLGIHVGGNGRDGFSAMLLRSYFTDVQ
Description: as §1, §2

[4] = test system: HRV-14; assay: Antirhinoviral HI-HeLa Cell Culture Assay (Cell Protection Assay, XTT dye reduction); format: cell-based, human rhinovirus (HRV) serotype-14
Outline: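 Protection measured via XTT dye reduction (450/650 nm) two days after compound treatment of HI-HeLa cells, mock-infected or infected with cDNA-derived HRV-14 at m.o.i. 0.13. CC50 divided by EC50 gives the therapeutic index.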

[5] = test system: HI-HeLa cells; assay: Cytotoxicity in mock-infected HI-HeLa cells (antirhinoviral assay, XTT); format: cell-based
[6] = as above; format: cell-based; details: human; mock-infected HI-HeLa cells; two days; XTT; read-out: CC50
[7] = HI-HeLa cells infected with HRV-14, m.o.i. 0.13, two days, XTT, read-out: EC50
[8] = Rhinovirus B, HRV14, 48 h, HI-HeLa cells infected with HRV-14, m.o.i. 0.13, two days, XTT, read-out: EC50

Structure (SMILES) | kobs/I ([1]; RVP serotype-14) | kobs/I ([2]; RVP serotype 16) | kobs/I [3] | EC50 [4, 7] [µM] | CC50 [5] [µM] | Ki [1] [µM] | kinact/KI [1] [M⁻¹ s⁻¹] | CC50 at 2 days [6] [µM] | EC50 [4, 8] [µM] | also measured
CCOC(=O)C=CC(CCC(N)=O)NC(=O)C(Cc1ccccc1)NC(=O)C(NC(=O)OCc1ccccc1)C(C)CC (centres unmarked) [Compound 172] | 31,700 M-1 sec-1 | 6,000 M-1 sec-1 | 2,000 M-1 sec-1 | 0.79 | > 100 | – | – | – | – | –
CCOC(=O)/C=C/[C@H](CCC(N)=O)NC(=O)[C@H](Cc1ccccc1)NC(=O)[C@H](CCc1ccccc1)NC(=O)SCc1ccccc1 [Compound 162] | 800,000 M-1 sec-1 | 80,000 M-1 sec-1 | 150,000 M-1 sec-1 | 0.32 | > 100 | – | – | – | – | –
CC(C)CC(NC(=O)OCc1ccccc1)C(=O)NC(Cc1ccccc1)C(=O)NC(C=C1CCOC1=O)CCC(N)=O (centres unmarked) [Compound 90] | 10,918 M-1 sec-1 | 3,600 M-1 sec-1 | – | 5.2 | > 320 | – | – | – | – | –
CCOC(=O)/C=C/[C@H](CCC(N)=O)NC(=O)[C@H](Cc1ccc(C)cc1)NC(=O)[C@@H](NC(=O)SC1CCCC1)C(C)C [Compound 183] | – | – | – | – | – | 0.55 | 500000 | > 100 | – | kinact/KI ([2]; RVP serotype 16): 60000 M⁻¹ s⁻¹; EC50 ([4]; Rhinovirus B, HRV14, 48 h): 0.03 µM
CCC[C@H](NC(=O)[C@H](CC(C)C)NC(=O)OCc1ccccc1)C(=O)N[C@H](/C=C/C(=O)OCC)CCC(N)=O [Compound 137] | 2,344 M-1 sec-1 | 1,157 M-1 sec-1 | 643 M⁻¹ s⁻¹ | 224 | > 320 | – | – | – | – | –
CC(C)C[C@H](NC(=O)OCc1ccccc1)C(=O)N[C@@H](Cc1ccccc1)C(=O)N[C@H](/C=C/C(=O)N1CCOC1=O)CCC(N)=O [Compound 62] | 600,000 M-1 sec-1 | 300,000 M-1 sec-1 | 600,000 M-1 sec-1 | 1.6 | > 100 | – | – | – | – | –
CC(C)C[C@H](NC(=O)OCc1ccccc1)C(=O)N[C@@H](Cc1ccccc1)C(=O)N[C@H](/C=C/C(=O)N1CCCC1=O)CCC(N)=O [Compound 61] | 125,940 M-1 sec-1 | 25,000 M-1 sec-1 | 14,000 M-1 sec-1 | 0.89 | 56 | – | – | – | – | –
CCOC(=O)/C=C/[C@H](CCC(N)=O)NC(=O)[C@H](Cc1ccccc1)NC(=O)[C@H](CC(=O)N(C)C)NC(=O)OCc1ccccc1 [Compound 158] | 22,600 M-1 sec-1 | 6,400 M-1 sec-1 | 2,200 M-1 sec-1 | 5.9 | > 320 | – | – | – | – | Ki ([1]; RVP serotype-14, 10 minute preincubation, substrate start, read-out: INHIB (Ki)): 17 µM
CC(C)C[C@H](NC(=O)OCc1ccccc1)C(=O)N[C@@H](Cc1ccccc1)C(=O)N[C@H](/C=C/C(=O)n1ccc2ccccc21)CCC(N)=O [Compound 89] | – | – | – | – | – | 5 | 53400 | 29 | 1.8 | kinact/KI ([2]; RVP serotype 16): 2800 M⁻¹ s⁻¹
CCOC(=O)/C=C/[C@H](CCC(N)=O)NC(=O)[C@H](Cc1ccc(OC)cc1)NC(=O)[C@H](CC(C)C)NC(=O)OCc1ccccc1 [Compound 103] | 29,200 M-1 sec-1 | 3,354 M-1 sec-1 | 1,106 M-1 sec-1 | 1.7 | > 320 | – | – | – | – | –
CCOC(=O)/C=C/[C@H](CCC(N)=O)NC(=O)[C@H](Cc1ccccc1)NC(=O)[C@H](CC(C)C)NC(=O)c1ccc(Oc2ccccc2)cc1 [Compound 104] | – | – | – | – | – | 2.5 | 8000 | > 320 | 5.2 | Ki [2]: 1500 nM
COC(=O)/C=C\[C@H](CCC(N)=O)NC(=O)[C@H](Cc1ccccc1)NC(=O)[C@H](CC(C)C)NC(=O)OCc1ccccc1 [Compound 7, Methyl-3-(CBZ-L-Leu-L-Phe-L-Gln)-Z-Propenoate] | – | – | – | – | – | 9.5 | 2400 | > 320 | 3.2 | inhibition at 1 µM ([2]; RVP serotype 16, 1 μM compound, 10 minute preincubation with 50 nM RVP, read-out: INHIB (percent inhibition)): 42%
CCOC(=O)/C=C/[C@H](CCC(N)=O)NC(=O)[C@H](Cc1ccccc1)NC(=O)CNC(=O)OCc1ccccc1 [Compound 102] | – | – | – | – | – | 12 | 3840 | > 320 | 5.6 | –
CCOC(=O)/C=C/[C@H](CCC(N)=O)NC(=O)[C@H](Cc1ccc(C#N)cc1)NC(=O)[C@H](CC(C)C)NC(=O)OCc1ccccc1 [Compound 132] | – | – | – | – | – | 10 | 10800 | > 320 | 5.6 | –
CCOC(=O)/C=C/[C@H](CCC(N)=O)NC(=O)[C@H](Cc1ccccc1)NC(=O)[C@H](CC(C)C)NC(C)=O [Compound 107] | – | – | – | – | – | 13.5 | 3660 | > 320 | 13.5 | –
CC(C)C[C@H](NC(=O)OCc1ccccc1)C(=O)N[C@@H](Cc1ccccc1)C(=O)N[C@H](/C=C/C(=O)N1CCc2cc(Br)ccc21)CCC(N)=O [Compound 94] | – | – | – | – | – | 1.5 | 5800 | > 320 | 46.8 | –
CCOC(=O)/C=C/[C@H](CCC(N)=O)NC(=O)[C@H](Cc1ccc(CO)cc1)NC(=O)[C@H](CC(C)C)NC(=O)OCc1ccccc1 [Compound 114] | – | – | – | – | – | ≥ 1 | 82300 | > 320 | 0.55 | kinact/KI ([3]; pH 7.6, progress curves in enzyme start experiments, read-out: kobs/I): 1970 M⁻¹ s⁻¹
CC(C)C[C@H](NC(=O)OCc1ccccc1)C(=O)N[C@@H](Cc1ccccc1)C(=O)N[C@H](/C=C/CCl)CCC(N)=O [Compound 74] | – | – | – | – | – | 2.4 | – | 250 | 10 | –
CCOC(=O)/C=C/[C@H](CCC(N)=O)NC(=O)[C@H](Cc1ccccc1)NC(=O)[C@@H](NC(=O)OCc1ccccc1)C(C)O (some centres unmarked) [Compound 152] | – | – | – | – | – | 3.2 | 38900 | > 320 | 1.78 | –
CCOC(=O)/C=C/[C@H](CCC(N)=O)NC(=O)[C@H](Cc1ccccc1)NC(=O)[C@@H](NC(=O)SCC)C(C)C [Compound 180] | – | – | – | – | – | 0.42 | 300000 | > 100 | 0.056 | –
CC(C)CC(NC(=O)OCc1ccccc1)C(=O)NC(Cc1ccccc1)C(=O)NC(C=C1CCCOC1=O)CCC(N)=O (centres unmarked) [Compound 130] | – | – | – | – | – | 0.03 to 0.04 | – | > 100 | 15.8 | –
